Test results: patent publication US20140248212A1, “NON-IMMUNOGENIC POSITRON EMISSION TOMOGRAPHY REPORTER GENE SYSTEMS” (THE REGENTS OF THE UNIVERSITY OF CALIFORNIA, priority 2011, published 2014)
Residue numbers refer to the chain shown, from its start. Entries after “also recorded” stand apart in the source; their conditions may differ.

Key:
WT TK2 [1] = details: reported by Ponomarev et al. 2007; cited from earlier work
thymidine kinase 2 (TK2) = biological target: T1, thymidine kinase 2 (TK2) (Homo sapiens, UniProt O00142); details: cited from earlier work
T1 sequence (O00142 34-265): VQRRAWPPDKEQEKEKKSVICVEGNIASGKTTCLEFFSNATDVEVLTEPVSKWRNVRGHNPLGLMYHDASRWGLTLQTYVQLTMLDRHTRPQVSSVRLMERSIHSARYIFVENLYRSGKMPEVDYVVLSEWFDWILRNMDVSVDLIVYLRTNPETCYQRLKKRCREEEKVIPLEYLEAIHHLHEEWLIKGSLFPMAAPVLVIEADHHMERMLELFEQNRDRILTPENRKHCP

[2] = accumulation in liver, small intestine, kidneys, urinary bladder only; cited from earlier work
WT TK2 [3] = biological target: T2, WT TK2 (Homo sapiens, UniProt O00142); assay: Kinetic analyses of recombinant TK2 (NADH-dependent enzyme coupled assay), WT TK2; type: biochemical; details: 37° C., 1 mM ATP
T2 construct: hexahistidine (N, cleaved yes); SUMO (N, cleaved yes); made in house; host or cells: Escherichia coli BL21 (DE3) C41, modified pET14b
T2 sequence (O00142 51-265): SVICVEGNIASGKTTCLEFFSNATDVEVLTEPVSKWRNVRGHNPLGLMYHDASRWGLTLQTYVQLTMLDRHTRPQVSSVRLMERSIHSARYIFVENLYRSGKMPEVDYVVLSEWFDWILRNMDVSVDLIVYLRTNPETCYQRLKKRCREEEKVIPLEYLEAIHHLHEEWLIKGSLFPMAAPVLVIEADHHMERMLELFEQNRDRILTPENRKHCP

TK2-N93D/L109F = biological target: T3, TK2-N93D/L109F (Homo sapiens, UniProt O00142, L109F/N93D); assay: Kinetic analyses of recombinant TK2 (NADH-dependent enzyme coupled assay), TK2-N93D/L109F; type: biochemical; details: 37° C., 1 mM ATP
T3 construct: hexahistidine (N, cleaved yes); SUMO (N, cleaved yes); made in house; host or cells: Escherichia coli BL21 (DE3) C41, modified pET14b
T3 sequence (O00142 51-265 N93D/L109F): T2 sequence (O00142 51-265) with N43D, L59F
Procedure: FIG. 34 provides a table that illustrates the kinetics of the phosphorylation of D and L-nucleosides by the TK2 mutants. Kinase assays were performed with recombinant protein with 200 μM of the listed substrate.

[4] = biological target: deoxycytidine kinase (dCK) (Homo sapiens, UniProt P27707); details: cited from earlier work
TK2-N93D = biological target: T4, TK2-N93D (Homo sapiens, UniProt O00142, N93D); assay: Kinetic analyses of recombinant TK2 (NADH-dependent enzyme coupled assay), TK2-N93D; details: 37° C., 1 mM ATP
T4 sequence (O00142 51-265 N93D): T2 sequence (O00142 51-265) with N43D
Procedure: (§3) A NADH-dependent enzyme coupled assay (see, e.g. Agarwal, K. C., et al. (1978) Methods Enzymol. 51, 483-490) was used. Using a Cary UV spectrophotometer, measurements were made in triplicate at 37° C. in a buffer containing 100 mM Tris, pH 7.5, 100 mM KCl, 5 mM MgCl2, and 1 mM ATP. For data in which kobs is given, a single nucleoside concentration of 200 μM was used. For data in which both Km and kcat are given, the nucleoside concentration was varied between 15 and 500 μM. TK2 concentration in the cuvette was 400 nM. Data were fit to the Michaelis-Menten equation using SigmaPlot. […] Therefore, all of the kinetic data using the Michaelis-Menten equation without the Hill coefficient is presented.

TK2-L109F = biological target: T5, TK2-L109F (Homo sapiens, UniProt O00142, L109F); assay: Kinetic analyses of recombinant TK2 (NADH-dependent enzyme coupled assay), TK2-L109F; details: 37° C., 1 mM ATP
T5 sequence (O00142 51-265 L109F): T2 sequence (O00142 51-265) with L59F
Procedure: as §3

[5] = Biodistribution of PET reporter probes in mice (microPET/CT); type: in vivo, C57/BL6 mice
Procedure: To identify candidate PRPs, eight nucleoside analogs (FIG. 7A) were synthesized that were amenable to ^18F labeling (the first criterion for PRPs). To identify PRP candidates with rapid clearance from normal tissues and low overall background (second criterion for PRGs), biodistribution studies in mice were performed. It was observed that natural (D) nucleosides had higher background than non-natural (L) nucleoside analogs. […] The next step was to identify a human nucleoside kinase that phosphorylates L-[^18F]FMAU and L-[^18F]FEAU, and can be converted into a new PRG that matches four criteria:
Initially, a group of nucleoside analogs amenable to fluorine-18 labeling were identified. These PET tracers, 5 of which were novel, were then screened to determine their biodistribution in C57/BL6 mice (n=3 for each PET tracer) through dynamic microPET scans. […] Rational design is utilized to introduce mutations into human nucleoside kinase thymidine kinase 2 (TK2) to improve the affinity of the kinase for the top candidate probe. The sensitivity and specificity of the novel PET reporter probe/gene pair was then determined in vitro and in vivo using a murine cancer model.
(§1) Animal studies were approved and carried out according to specific guidelines. C57/BL6 mice were injected with the indicated probe and underwent micro-PET/CT analyses at 1- and 3-h post probe injection (Inveon, Siemens Medical Solutions USA Inc.; microCAT; Imtek Inc.). For tumor imaging studies, SCID mice were injected subcutaneously on day −7 in the right and left flanks with 1×10^6 L1210-PRG-expressing cells in 50% v/v phosphate-buffered saline and 50% v/v Matrigel™ (BD Biosciences). For imaging experiments, mice were kept warm and under gas anesthesia (2% v/v isoflurane) and were injected intravenously with 200 μCi of ^18F-labeled probes. A 3-h interval was allowed between probe administration and microPET/CT scanning Static microPET images were acquired for 600 s. Image data were evaluated in three-dimensional histograms and reconstructed with a zoom factor of 2.1 using three-dimensional ordered set expectation maximization (OSEM) with 2 iterations followed by MAP (maximum a posteriori) reconstruction with 18 iterations (beta=0.1). Images were analyzed using OsiriX Imaging Software Version 3.8.

[6] = Human whole-body PET/CT biodistribution of PET reporter probes; type: in vivo
Text: All studies involving human volunteers were approved. A healthy person and a healthy volunteer were recruited for the L-^18F-FMAU biodistribution study. Each volunteer received a bolus intravenous injection of ˜56 MBq (1.5 mCi) sterile L-^18F-FMAU and had four consecutive whole-body (starting from just above the head to above the knees, 6 bed positions, 5-min scan at each bed position) PET scans (Biograph 64, Siemens), with the first scan starting shortly after intravenous injection of L-^18F-FMAU. A low dose CT scan was also obtained for attenuation correction. Volunteers urinated after all scans had been performed. The region of interest analysis was performed to measure mean standard uptake values of L-^18F-FMAU in major organs/tissues. To illustrate the biodistribution of ^18F-FHBG, unpublished scan from a previous study (see, e.g. Yaghoubi, S. S., et al. (2009) Nat. Clin. Pract. Oncol. 6, 53-58) was used.

[7] = system: L1210 tumors expressing WT TK2; assay: microPET/CT of SCID mice bearing L1210-PRG tumors (WT TK2); type: in vivo; details: 3 hrs post-injection, FIG. 10D
Text: (§2) To compare TK2, TK2-N93D and HSV1-sr39tk in vivo, PRG-expressing L1210 cells were implanted subcutaneously in SCID mice that were then scanned with L-[^18F]FMAU (FIG. 10A) and [^18F]FHBG (FIG. 10C) on consecutive days. […] Signals obtained with sr39tk were slightly higher than those obtained with the human TK2-N93D PRG (the difference was not statistically significant). […] L-[^18F]FMAU accumulation in TK2-N93D transduced tumors was ˜20 times higher than the accumulation in tumors transduced with the control (eYFP only) vector. While this ratio is higher than the 6.67 ratio reported for WT TK2 as a PRG with D-[^18F]FEAU as the PRP (see, e.g. Ponomarev, V., et al. J Nucl Med 48:819-826, 2007), the HSV1-sr39tk/[^18F]FHBG combination still outperforms the TK2-N93D/L-[^18F]FMAU combination by ˜2-fold. […]
Animal studies were approved and carried out according to specific guidelines. […] Image data were evaluated in three-dimensional histograms and reconstructed with a zoom factor of 2.1 using three-dimensional ordered set expectation maximization (OSEM) with 2 iterations followed by MAP (maximum a posteriori) reconstruction with 18 iterations (beta=0.1). Images were analyzed using OsiriX Imaging Software Version 3.8.

[8] = system: L1210 tumors expressing TK2-N93D; assay: microPET/CT of SCID mice bearing L1210-PRG tumors (TK2-N93D); type: in vivo; details: 3 hrs post-injection, FIG. 10D
Text: To compare TK2, TK2-N93D and HSV1-sr39tk in vivo, PRG-expressing L1210 cells were implanted subcutaneously in SCID mice that were then scanned with L-[^18F]FMAU (FIG. 10A) and [^18F]FHBG (FIG. 10C) on consecutive days. […] Signals obtained with sr39tk were slightly higher than those obtained with the human TK2-N93D PRG (the difference was not statistically significant). […] L-[^18F]FMAU accumulation in TK2-N93D transduced tumors was ˜20 times higher than the accumulation in tumors transduced with the control (eYFP only) vector. While this ratio is higher than the 6.67 ratio reported for WT TK2 as a PRG with D-[^18F]FEAU as the PRP (see, e.g. Ponomarev, V., et al. J Nucl Med 48:819-826, 2007), the HSV1-sr39tk/[^18F]FHBG combination still outperforms the TK2-N93D/L-[^18F]FMAU combination by ˜2-fold. The significance of the 2-fold difference for the sensitivity of the new TK2-N93D PRG can be further investigated in the animal models discussed below (see, e.g. Gerth, M. L., et al. Biochem Biophys Res Commun 354:802-807, 2007; Liu, L., et al. Nucleic Acids Res 37:4472-4481, 2009; Iyidogan, P., et al. Biochemistry 47:4711-4720, 2008; Lutz, S., et al. Chimia (Aarau) 63:737-744 2009).
as §1

[9] = system: L1210 tumors expressing HSV1-sr39tk; assay: microPET/CT of SCID mice bearing L1210-PRG tumors (HSV1-sr39tk); type: in vivo
Text: as §2
Animal studies were approved and carried out according to specific guidelines. […] Image data were evaluated in three-dimensional histograms and reconstructed with a zoom factor of 2.1 using three-dimensional ordered set expectation maximization (OSEM) with 2 iterations followed by MAP (maximum a posteriori) reconstruction with 18 iterations (beta=0.1). Images were analyzed using OsiriX Imaging Software Version 3.8. […]

Sequence of deoxycytidine kinase (dCK) (P27707 whole entry): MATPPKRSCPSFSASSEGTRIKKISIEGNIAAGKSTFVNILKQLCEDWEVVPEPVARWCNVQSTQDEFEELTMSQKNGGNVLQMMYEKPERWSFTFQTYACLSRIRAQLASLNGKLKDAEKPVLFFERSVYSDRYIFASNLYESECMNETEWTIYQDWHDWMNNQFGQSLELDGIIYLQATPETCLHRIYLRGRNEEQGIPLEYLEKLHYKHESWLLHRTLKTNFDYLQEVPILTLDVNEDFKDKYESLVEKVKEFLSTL

CCc1cn([C@@H]2O[C@H](CO)[C@@H](O)[C@@H]2F)c(=O)[nH]c1=O [D-[^18F]FEAU, 2′-deoxy-2′-^18F-5-ethyl-1-β-D-arabinofuranosyluracil]
ratio of accumulation, PRG versus control (WT TK2 [1]): 6.67
activity of kinase towards nucleoside analog (thymidine kinase 2 (TK2)): active towards L-FMAU, D-
biodistribution as a candidate PRP [2]: favorable biodistribution

Cc1cn([C@H]2O[C@@H](CO)[C@H](O)[C@H]2F)c(=O)[nH]c1=O [L-FMAU]
kcat (L-FMAU)/kcat (D-dT) ratio (WT TK2 [3]): 3.7
increase of kcat compared with TK2 (TK2-N93D/L109F): 100%
kcat (L-FMAU)/kcat (D-dT) ratio (TK2-N93D/L109F): 14.9
kcat (L-FMAU)/kcat (D-dT) ratio, higher than that for TK2 (TK2-N93D/L109F): 4 fold
kcat (L-FMAU)/kcat (D-dT) ratio, higher than that for TK2-N93D (TK2-N93D/L109F): ~40%
activity of kinase towards nucleoside analog (thymidine kinase 2 (TK2)): substrate for human TK2; also recorded: active towards L-FMAU, D-
activity of kinase towards nucleoside analog [4]: Very low activity with L-FMAU
decrease of kcat relative to WT TK2 (TK2-N93D): 32%
increase of kcat/Km compared with WT TK2 (TK2-N93D): 77%
kcat (L-FMAU)/kcat (D-dT) ratio compared with wild type (TK2-N93D): nearly triples
kcat (L-FMAU)/kcat (D-dT) ratio (TK2-L109F): 2.4

Nc1nc2c(ncn2CCC(CO)C[18F])c(=O)[nH]1 (stereo not drawn) [^18F-FHBG, 9-[4-[^18F]fluoro-3-(hydroxymethyl)butyl]guanine, reference compound]
accumulation in the liver ([5]; 3-h time point): neither probe showed any accumulation
accumulation in the gallbladder ([5]; 3 h after administration): 7.45±5.31 % injected dose/g
accumulation in the gallbladder, 18F-FHBG relative to L-18F-FMAU ([5]; 3 h after administration): 4 times
retention in the abdominal cavity, 18F-FHBG relative to L-18F-FMAU ([5]; 3 h after administration): three times higher
retention in the thoracic cavity ([5]; 3 h after administration): very low retention
signals in the GI tract ([5]; 3 h after administration): detected throughout the GI tract
abdominal background ([5]; mice, compared with [18F]FHBG): high abdominal background
tissues with relatively high signals ([6]; 2 h post-administration): relatively high signals were observed in liver, kidneys, gall bladder, bladder, and the GI tract
tracer background within abdomen and pelvis ([6]; whole-body PET/CT, human): high abdominal background
[18F]FHBG accumulation in tumors [7]: Neither WT TK2 nor TK2-N93D expressing tumors accumulated detectable amounts
[18F]FHBG accumulation in tumors [8]: Neither WT TK2 nor TK2-N93D expressing tumors accumulated detectable amounts
probe uptake in L1210 tumors ([9]; 18F-FHBG, 3 h post-injection): 24.1±6.2 % injected dose/g
HSV1-sr39tk/[18F]FHBG combination outperforms TK2-N93D/L-[18F]FMAU combination ([9]; tumor to control ratio): ~2 fold
